Measured values taken from US4011390A, “Semi-synthetic aminocyclitol aminoglycoside antibiotics and methods for the preparation thereof” (Schering-Plough Corporation, priority 1974, dated 1977).

Legend:
Assay type in all cases: cell-based
Streptococcus pyogenes = test: Disc test, Bauer-Kirby technique with 10 Mcg. discs
Description: (§1) Disc Test Results (Replicate Tests) With The Mutamicins, Sisomicin and
(§2) Bauer-Kirby Technique^1 With 10 Mcg. Discs
(§3) ^1 Bauer, Kirby, Sherris and Turck, American Journal of Clinical

Klebsiella pneumoniae [1] = test: as above
Description: as §1, §2, §3

Pseudomonas aeruginosa [2] = test: as above
Description: as §1, §2, §3

Staphylococcus aureus = test: as above
Description: as §1, §2, §3

Providence 164 = test: as above; conditions: strain 164
Description: as §1, §2, §3

Bacillus subtilis = test: as above; conditions: strain ATCC 6633
Description: as §1, §2, §3

Escherichia coli = test: as above; conditions: 10 Mcg. discs
Description: as §1, §2, §3

E. coli = test: Activity against resistant strains; conditions: E. coli W677/R55 and LA290/R55
Description: (§4) In many instances, bacterial resistance is related to the organism's ability to inactivate the antibacterial agent via enzymatic (biochemical) means. Some species inactivate aminoglycosides antibiotics by acetylating the antibacterial agent, others by phosphorylation and still others by adenylylating. Some strains have several different inactivating capabilities. Further, the inactivation reactions occur at a specific site or sites on the antibacterial agent. We have shown by the compounds of this invention that alteration of sites on the antibiotic molecule not directly involved in inactivation processes can nevertheless frustrate these inactivation processes. […] The tables illustrate that the mutamicins include compounds which are active against strains having different mechanisms of inactivation of gentamicin, sisomicin, kanamycin, neomycin and torbramycin. For example, some mutamicins are effective against strains of E. coli which contain adenylylating R factors such as E. coli W677/R55 and LA290/R55. These E. coli strains are resistant to gentamicin, sisomicin and torbramycin. Some are also effective against gentamicin, tobramycin and kanamycin resistant adenylylating strains of Klebsiella pneumoniae and also kanamycin, neomycin phosphorylating strains of E. coli and Klebsiella pneumoniae. Further, some mutamicins are effective against gentamicin and sisomicin resistant strains of Pseudomonas aeruginosa and gentamicin, sisomicin, tobramycin resistant Providence which is sensitive to kanamycin. Thus, the mutamicins afford a means for combatting strains of bacteria which have already developed a variety of mechanisms for resisting the action of many of the antibiotics known in the art or currently in commercial use.

Klebsiella pneumoniae [3] = test: Activity against resistant strains; conditions: gentamicin, tobramycin and kanamycin resistant adenylylating strains
Description: as §4

Pseudomonas aeruginosa [4] = test: Activity against resistant strains; conditions: gentamicin and sisomicin resistant strains
Description: as §4

Providence = test: Activity against resistant strains; conditions: gentamicin, sisomicin, tobramycin resistant Providence
Description: as §4

## gentamicin [reference compound]
Streptococcus pyogenes; strain B-Cruz
  Zone Size: 16 mm
Streptococcus pyogenes; strain C
  Zone Size: 13 mm
Klebsiella pneumoniae [1]; strain Ad 17
  Zone Size: 22 mm
Klebsiella pneumoniae [1]; strain Ad 18
  Zone Size: 25 mm
Klebsiella pneumoniae [1]; strain Georgetown 3020
  Zone Size: 11 mm
Klebsiella pneumoniae [1]; strain Georgetown 3694
  Zone Size: 13 mm
Pseudomonas aeruginosa [2]; strain Capetown 18
  Zone Size: 12 mm
Pseudomonas aeruginosa [2]; strain D-2
  Zone Size: 23 mm
Pseudomonas aeruginosa [2]; strain St. Michael 413
  Zone Size: 26 mm
Pseudomonas aeruginosa [2]; strain St. Michael 762
  Zone Size: 24 mm
Pseudomonas aeruginosa [2]; strain St. Michael 1262
  Zone Size: 25 mm
Pseudomonas aeruginosa [2]; strain St. Michael 1395
  Zone Size: 26 mm
Pseudomonas aeruginosa [2]; strain Stone 20
  Zone Size: 27 mm
Pseudomonas aeruginosa [2]; strain Stone 39
  Zone Size: 25 mm
Pseudomonas aeruginosa [2]; strain Stone 130
  Zone Size: 12 mm
Pseudomonas aeruginosa [2]; strain Stone 138
  Zone Size: 10 mm
Staphylococcus aureus; strain 59N
  Zone Size: 28 mm
Staphylococcus aureus; strain ATCC 6538P
  Zone Size: 25 mm
Staphylococcus aureus; strain Wood
  Zone Size: 27 mm
Staphylococcus aureus; strain Ziegler
  Zone Size: 26 mm
Providence 164
  Zone Size: 11 mm
Bacillus subtilis
  Zone Size: 31 mm
Escherichia coli; strain 589
  Zone Size: 23 mm
Escherichia coli; strain ATCC 10536
  Zone Size: 28 mm
Escherichia coli; strain JR88
  Zone Size: 11 mm
Escherichia coli; strain JR90
  Zone Size: 0 mm
Escherichia coli; strain LA290/R55
  Zone Size: 12 mm
Escherichia coli; strain Swidinsky 4195
  Zone Size: 23 mm
Escherichia coli; strain W677/R55
  Zone Size: 13 mm
E. coli
  activity against strains containing adenylylating R factors: resistant
Klebsiella pneumoniae [3]
  activity against resistant adenylylating strains: resistant
Pseudomonas aeruginosa [4]
  activity against resistant strains: resistant
Providence
  activity against resistant Providence: resistant
